Test results as given in patent US10975037B2 (priority 2018, dated 2021).
Counter-ions that a name gives are not always drawn. Like-named read-outs stand apart in the source and are kept apart here. Marks after values point to notes of the source that are not given here.

How the values were obtained:
[1] = target: human RORγt ligand binding domain (RORγt LBD) (Homo sapiens (Human), UniProt P51449); assay: RORγt ThermoFluor® assay (thermal shift binding)
How it was run: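 Thermal shift with 0.065 mg/mL RORγt LBD and 60 μM 1,8-ANS in 100 mM Hepes pH 7.0, 10 mM NaCl, 2.5 mM GSH, 0.002% Tween-20.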

[2] = target: full-length human RORγt (Homo sapiens (Human), UniProt P51449); assay: RORγt (full-length human) reporter assay, conditions A or B, HEK293T cells; assay type: cell-based; details: for inhibition at 2 µM: 2 μM compound concentration; for inhibition at 6 µM: read-out: RORγt (FL) Reporter Assay A or B, % inhibition @ 6 μM, 6 μM compound concentration
How it was run: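 Dual-luciferase read-out was taken after an overnight (16–20 h) compound exposure. Firefly data were scaled between DMSO-only and saturating reference compound, Renilla-normalized, then plotted against concentration for IC50.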

[3] = read-out: ThermoFluor® Assay, Kd
[4] = HEK-293T, read-out: RORγt (FL) Reporter Assay A or B, % inhibition
[5] = RORγt (FL) Reporter Assay A or B, IC50, HEK293T cells
[6] = HEK-293T, 3 μM compound concentration (footnote *), read-out: RORγt (FL) Reporter Assay A or B, % inhibition

Chain of human RORγt ligand binding domain (RORγt LBD) (P51449 other isoform, or with tags, fused parts or gaps): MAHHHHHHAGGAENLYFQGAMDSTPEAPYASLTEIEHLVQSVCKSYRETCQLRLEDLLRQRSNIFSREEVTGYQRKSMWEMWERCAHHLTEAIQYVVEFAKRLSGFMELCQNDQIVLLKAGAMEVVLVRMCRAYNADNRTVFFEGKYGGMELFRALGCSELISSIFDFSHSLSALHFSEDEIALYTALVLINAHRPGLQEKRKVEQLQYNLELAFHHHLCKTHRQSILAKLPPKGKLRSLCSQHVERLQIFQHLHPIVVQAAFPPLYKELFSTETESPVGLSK
Chain of full-length human RORγt (P51449 other isoform, or with tags, fused parts or gaps): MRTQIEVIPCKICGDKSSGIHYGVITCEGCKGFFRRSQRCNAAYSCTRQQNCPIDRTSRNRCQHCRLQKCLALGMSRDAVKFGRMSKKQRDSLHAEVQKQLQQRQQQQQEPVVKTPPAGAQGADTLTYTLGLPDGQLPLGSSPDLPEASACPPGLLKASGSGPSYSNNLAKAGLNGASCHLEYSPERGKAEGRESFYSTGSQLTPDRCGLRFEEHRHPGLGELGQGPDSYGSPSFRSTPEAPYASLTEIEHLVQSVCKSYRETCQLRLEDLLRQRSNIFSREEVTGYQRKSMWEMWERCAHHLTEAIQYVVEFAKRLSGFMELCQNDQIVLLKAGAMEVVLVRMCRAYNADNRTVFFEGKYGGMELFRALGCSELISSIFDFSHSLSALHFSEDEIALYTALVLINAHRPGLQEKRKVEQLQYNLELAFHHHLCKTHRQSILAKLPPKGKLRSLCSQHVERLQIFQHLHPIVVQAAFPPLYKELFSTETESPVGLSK

SMILES | Kd [1, 3] [nM] | inhibition at 2 µM [2, 4] [%] | IC50 [2, 5] [nM] | Kd ([1]; ThermoFluor® Assay, Kd) [nM] | also measured
CCn1nc(C(=O)NC[C@H]2CC[C@H](S(C)(=O)=O)CC2)c(C(C)C)c1-c1ccc(N[C@H](C)C(F)(F)F)cc1OC [Example 131, 1-Ethyl-4-isopropyl-5-(2-methoxy-4-(((R)-1,1,1-trifluoropropan-2-yl)amino)phenyl)-N-(((1r,4R)-4-(methylsulfonyl)cyclohexyl)methyl)-1H-pyrazole-3-carboxamide] | 33 | 100 | 140 |  | 
CCn1nc(C(=O)NC[C@H]2CC[C@H](S(C)(=O)=O)CC2)c(Cl)c1-c1ccc(OCC2(C)CC2)cc1OC [Example 215, 4-Chloro-1-ethyl-5-(2-methoxy-4-((1-methylcyclopropyl)methoxy)phenyl)-N-(((1r,4r)-4-(methylsulfonyl)cyclohexyl)methyl)-1H-pyrazole-3-carboxamide] | 6.6 | 80 | 56 |  | 
CCn1nc(C(=O)NC[C@@]2(O)CC[C@H](S(C)(=O)=O)C[C@@H]2O)c(Cl)c1-c1ccc(CC(C)(C)C(F)(F)F)cc1OC(F)F (single isomer, unassigned) [Example 47, 4-Chloro-5-(2-(difluoromethoxy)-4-(3,3,3-trifluoro-2,2-dimethylpropyl)phenyl)-N-(((1S*,2S*,4S*)-1,2-dihydroxy-4-(methylsulfonyl)cyclohexyl)methyl)-1-ethyl-1H-pyrazole-3-carboxamide] |  | 103 | 1.7 | 0.37 | 
CCn1nc(C(=O)NC[C@]2(O)CC[C@@H](S(C)(=O)=O)CC2)c(Cl)c1-c1ccc(CC(C)(C)C(F)(F)F)cc1F [Example 178, 4-Chloro-1-ethyl-5-(2-fluoro-4-(3,3,3-trifluoro-2,2-dimethylpropyl)phenyl)-N-(((1s,4s)-1-hydroxy-4-(methylsulfonyl)cyclohexyl)methyl)-1H-pyrazole-3-carboxamide] | 2.4 |  | 30 |  | inhibition at 0.67 µM ([2]; HEK-293T, 0.67 μM compound concentration (footnote ****), read-out: RORγt (FL) Reporter Assay A or B, % inhibition): 89%
CCn1nc(C(=O)NC[C@]2(O)CC[C@@H](S(C)(=O)=O)C[C@H]2O)c(Cl)c1-c1ccc(C[C@@H](C)C(F)(F)F)cc1OC(F)F (stereo in doubt) [Example 137, 4-Chloro-5-(2-(difluoromethoxy)-4-((R*)-3,3,3-trifluoro-2-methylpropyl)phenyl)-N-(((1R*,2R*,4R*)-1,2-dihydroxy-4-(methylsulfonyl)cyclohexyl)methyl)-1-ethyl-1H-pyrazole-3-carboxamide] |  |  | 4.8 | 2 | inhibition at 3 µM [2, 6]: 102%
CCn1nc(C(=O)NC[C@]2(CO)CC[C@@H](S(C)(=O)=O)CC2)c(Cl)c1-c1ccc(N[C@H](C)C(F)(F)F)cc1OC (relative stereo) [Example 93, 4-Chloro-1-ethyl-N-(((1s*,4S*)-1-(hydroxymethyl)-4-(methylsulfonyl)cyclohexyl)methyl)-5-(2-methoxy-4-(((R)-1,1,1-trifluoropropan-2-yl)amino)phenyl)-1H-pyrazole-3-carboxamide] |  | 96 | 30 | 11 | 
CCn1nc(C(=O)NC[C@@H]2CC[C@H](S(C)(=O)=O)CN2)c(Cl)c1-c1ccc(CC(C)(C)C(F)(F)F)cc1OC(F)F (stereo in doubt) [Example 12, 4-Chloro-5-(2-(difluoromethoxy)-4-(3,3,3-trifluoro-2,2-dimethylpropyl)phenyl)-1-ethyl-N-(((2S*,5S*)-5-(methylsulfonyl)piperidin-2-yl)methyl)-1H-pyrazole-3-carboxamide] |  |  | 91 | 74 | inhibition at 3 µM [2, 6]: 92%
CCn1nc(C(=O)NC[C@H]2CC[C@H](S(=O)(=O)NC=O)CC2)c(Cl)c1-c1ccc(CC(C)(C)C(F)(F)F)cc1OC(F)F [Example 67, 4-Chloro-5-(2-(difluoromethoxy)-4-(3,3,3-trifluoro-2,2-dimethylpropyl)phenyl)-1-ethyl-N-(((1r,4r)-4-(N-formylsulfamoyl)cyclohexyl)methyl)-1H-pyrazole-3-carboxamide] | 0.039 |  |  |  | RORγt (FL) Reporter Assay A or B, % inhibition ([2]; 3 μM compound concentration (footnote *)): 118* %; IC50 ([2]; HEK293T cells, read-out: RORγt (FL) Reporter Assay A or B, IC50): 56 nM
CCn1nc(C(=O)NC[C@]2(O)CC[C@@H](S(C)(=O)=O)C[C@H]2N)c(Cl)c1-c1ccc(CC(C)(C)C(F)(F)F)cc1OC(F)F (single isomer, unassigned) [Example 6, N-(((1R*,2R*,4R*)-2-Amino-1-hydroxy-4-(methylsulfonyl)cyclohexyl)methyl)-4-chloro-5-(2-(difluoromethoxy)-4-(3,3,3-trifluoro-2,2-dimethylpropyl)phenyl)-1-ethyl-1H-pyrazole-3-carboxamide Hydrobromide] |  |  | 29 | 2.4 | inhibition at 3 µM [2, 6]: 117%
CCn1nc(C(=O)NC[C@H]2CC[C@H](S(N)(=O)=O)CC2)c(Cl)c1-c1ccc(CC(C)(C)C(F)(F)F)cc1OC(F)F [Example 51, 4-Chloro-5-(2-(difluoromethoxy)-4-(3,3,3-trifluoro-2,2-dimethylpropyl)phenyl)-1-ethyl-N-(((1r,4r)-4-sulfamoylcyclohexyl)methyl)-1H-pyrazole-3-carboxamide] |  |  | 4.6 | 0.25 | inhibition at 1 µM ([2]; HEK-293T, 1 μM compound concentration (footnote ***), read-out: RORγt (FL) Reporter Assay A or B, % inhibition): 113%
CCn1nc(C(=O)NC[C@H]2CC[C@H](S(C)(=O)=O)CC2)c(Cl)c1-c1ccc(CC(C)C)cc1OC [Example 72, 4-Chloro-1-ethyl-5-(4-isobutyl-2-methoxyphenyl)-N-(((1r,4r)-4-(methylsulfonyl)cyclohexyl)methyl)-1H-pyrazole-3-carboxamide] | 0.29 | 67 | 10 |  | 
CCn1nc(C(=O)NC[C@]2(O)CC[C@@H](S(C)(=O)=O)CC2)c(Cl)c1-c1ccc(CCC(F)(F)F)cc1OC(F)(F)F [Example 188, 4-Chloro-1-ethyl-N-(((1s,4s)-1-hydroxy-4-(methylsulfonyl)cyclohexyl)methyl)-5-(2-(trifluoromethoxy)-4-(3,3,3-trifluoropropyl)phenyl)-1H-pyrazole-3-carboxamide] | 11 | 34 | > 2000 |  | 
CCn1nc(C(=O)NC[C@@H]2CC[C@H](S(C)(=O)=O)CO2)c(Cl)c1-c1ccc(N[C@H](C)C(F)(F)F)cc1OC (relative stereo) [Example 18, 4-Chloro-1-ethyl-5-(2-methoxy-4-(((R)-1,1,1-trifluoropropan-2-yl)amino)phenyl)-N-(((2S*,5S*)-5-(methylsulfonyl)tetrahydro-2H-pyran-2-yl)methyl)-1H-pyrazole-3-carboxamide] |  |  | 830 | 240 | inhibition at 6 µM ([2]; HEK-293T): 102%
CCn1nc(C(=O)NCC2(N)CCC(S(C)(=O)=O)CC2)c(Cl)c1-c1ccc(CC(C)C(F)(F)F)cc1OC (stereo not drawn) [Example 128, N-((1-Amino-4-(methylsulfonyl)cyclohexyl)methyl)-4-chloro-1-ethyl-5-(2-methoxy-4-(3,3,3-trifluoro-2-methylpropyl)phenyl)-1H-pyrazole-3-carboxamide] | 140 | 63 | 850 |  | 
COc1cc(N[C@H](C)C(F)(F)F)ccc1-c1c(Cl)c(C(=O)NC[C@H]2CC[C@H](S(C)(=O)=O)CC2)nn1CC(C)(C)O [Example 202, 4-Chloro-1-(2-hydroxy-2-methylpropyl)-5-(2-methoxy-4-(((R)-1,1,1-trifluoropropan-2-yl)amino)phenyl)-N-(((r,4R)-4-(methylsulfonyl)cyclohexyl)methyl)-1H-pyrazole-3-carboxamide] | 180 |  | 850 |  | inhibition at 6 µM ([2]; HEK-293T): 93%
